Measurements reported in publication PMC8258697 (The Journal of Biological Chemistry, 2021).

Key:
[1] = target: T1, RXRα homodimer (Homo sapiens, UniProt P19793); experiment: RXRα homodimer formation HTRF assay, sGFP-RXRα LBD titrated against biotinylated RXRα LBD (wildtype); type: binding; conditions: 10 μM ligand compared with no ligand
T1 construct: His10-tag with TEV site (N, cleaved yes); made in house; host or cells: E. coli T7 express (co-expressed with GroEL/ES)
T1 sequence (P19793 226-462) 1: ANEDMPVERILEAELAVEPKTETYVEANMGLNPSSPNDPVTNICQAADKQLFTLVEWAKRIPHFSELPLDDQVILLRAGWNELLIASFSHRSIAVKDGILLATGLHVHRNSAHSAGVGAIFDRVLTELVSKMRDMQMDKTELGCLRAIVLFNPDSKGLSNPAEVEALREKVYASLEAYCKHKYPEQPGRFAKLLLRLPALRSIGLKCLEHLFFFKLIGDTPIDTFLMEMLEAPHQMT
T1 sequence (P19793 226-462) 2: T1 sequence (P19793 226-462) 1

[2] = target: T2, PPARγ LBD (Homo sapiens, UniProt P37231); experiment: Monomer cofactor recruitment HTRF assay: CBP-1 recruitment by isolated sGFP-PPARγ LBD; type: biochemical; conditions: titrated alone, or constant 10 μM against titrated rosiglitazone
T2 construct: His10-tag with TEV site (N, cleaved yes); made in house; host or cells: E. coli T7 express (co-expressed with GroEL/ES)
T2 sequence (P37231 234-505): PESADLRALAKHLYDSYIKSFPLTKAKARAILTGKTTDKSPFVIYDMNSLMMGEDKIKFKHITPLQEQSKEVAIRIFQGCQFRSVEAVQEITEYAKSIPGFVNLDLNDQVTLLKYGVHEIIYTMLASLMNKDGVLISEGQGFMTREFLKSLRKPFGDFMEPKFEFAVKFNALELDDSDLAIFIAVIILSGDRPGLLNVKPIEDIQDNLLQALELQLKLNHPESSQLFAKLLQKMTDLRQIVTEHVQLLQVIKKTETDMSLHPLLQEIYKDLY

[3] = target: T3, RXRα total mutant LBD (Homo sapiens, UniProt P19793, E453R/F450Y/K284E/V280T/V298T); experiment: Isothermal titration calorimetry, RXRα total mutant LBD; type: binding; conditions: 25°C
T3 construct: MBP-Asn10-His8-TEV site (N, cleaved yes); made in house; host or cells: E. coli T7 express (co-expressed with GroEL/ES)
T3 sequence (P19793 223-462 V280T/K284E/V298T/F450Y/E453R): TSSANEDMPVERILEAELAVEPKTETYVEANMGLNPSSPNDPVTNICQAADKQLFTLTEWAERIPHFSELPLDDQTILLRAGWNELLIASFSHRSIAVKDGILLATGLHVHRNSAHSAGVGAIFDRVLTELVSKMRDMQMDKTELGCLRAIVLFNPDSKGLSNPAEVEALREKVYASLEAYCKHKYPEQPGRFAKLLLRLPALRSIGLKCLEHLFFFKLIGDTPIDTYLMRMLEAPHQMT
Description: SI method 1: LBD pulldown
In order to verify proper dimer formation capability of the majority of the protein preparation a pulldown experiment was performed. Therefore, small centrifugal filter columns (nylon membrane with […] pore size; VWR) were loaded with 20 µl of Pierce® high capacity streptavidin agarose beads (Thermo Scientific) equilibrated in HTRF buffer [25 mM HEPES pH 7.5, 150 mM KF, 10% (w/v) glycerol, 5 mM DTT (fresh)], then 20 µl of a mixture of biotin coupled RXRα LBD (4 µg) and the respective PPAR LBD (1.4 µg) was applied. After incubation for 10 min at room temperature followed by centrifugation for 2 min and 900 x g the input mixture as well as the flowthrough was analyzed via SDS PAGE. Gels were scanned using an Li-Cor Odyssey imager (LI-COR® Biosciences GmbH, Germany). Missing bands in comparison to the input control were interpreted in two different ways. […]
The heats of dilution resulting from titrating one of the RXRα LBD proteins into the cell containing only buffer were recorded separately and subtracted from the raw ITC data obtained with compound. Data were analyzed using the NanoAnalyze software package (version 3.7.5). […] Free energy change (ΔG) was calculated using the equation […]
and from there the entropy (ΔS) was calculated from […]
µM SR11237. […] The heats of dilution resulting from titrating of protein into buffer were recorded separately and subtracted. […]

## CC1(C)CCC(C)(C)c2cc(C3(c4ccc(C(=O)O)cc4)OCCO3)ccc21 [SR11237]
[1]
  effect on RXRα homodimer formation: significantly destabilized the homodimer
[2]
  effect on CBP-1 recruitment by isolated PPARγ LBD: neither activated recruitment of CBP-1 by PPARγ nor impaired rosiglitazone-mediated recruitment
[3]
  binding affinity (ITC): comparable affinity
